Measurements reported in patent US20040229791A1, “Compositions and methods of modulating TGF-beta activity by fatty acids” (priority 2002, published 2004).

Columns and labels:
[1] = molecular target: T1, TGF-β2-α2M* complex (Homo sapiens, UniProt P01023); assay: Inhibition of 125I-TGF-β2 and α2M* complex formation (5% non-denaturing PAGE); format: binding; details: 30% inhibition
T1 construct: was purified from pooled citrate-treate human plasma; from tissue; host or cells: pooled citrate-treated human plasma
T1 sequence (P01023 24-1474): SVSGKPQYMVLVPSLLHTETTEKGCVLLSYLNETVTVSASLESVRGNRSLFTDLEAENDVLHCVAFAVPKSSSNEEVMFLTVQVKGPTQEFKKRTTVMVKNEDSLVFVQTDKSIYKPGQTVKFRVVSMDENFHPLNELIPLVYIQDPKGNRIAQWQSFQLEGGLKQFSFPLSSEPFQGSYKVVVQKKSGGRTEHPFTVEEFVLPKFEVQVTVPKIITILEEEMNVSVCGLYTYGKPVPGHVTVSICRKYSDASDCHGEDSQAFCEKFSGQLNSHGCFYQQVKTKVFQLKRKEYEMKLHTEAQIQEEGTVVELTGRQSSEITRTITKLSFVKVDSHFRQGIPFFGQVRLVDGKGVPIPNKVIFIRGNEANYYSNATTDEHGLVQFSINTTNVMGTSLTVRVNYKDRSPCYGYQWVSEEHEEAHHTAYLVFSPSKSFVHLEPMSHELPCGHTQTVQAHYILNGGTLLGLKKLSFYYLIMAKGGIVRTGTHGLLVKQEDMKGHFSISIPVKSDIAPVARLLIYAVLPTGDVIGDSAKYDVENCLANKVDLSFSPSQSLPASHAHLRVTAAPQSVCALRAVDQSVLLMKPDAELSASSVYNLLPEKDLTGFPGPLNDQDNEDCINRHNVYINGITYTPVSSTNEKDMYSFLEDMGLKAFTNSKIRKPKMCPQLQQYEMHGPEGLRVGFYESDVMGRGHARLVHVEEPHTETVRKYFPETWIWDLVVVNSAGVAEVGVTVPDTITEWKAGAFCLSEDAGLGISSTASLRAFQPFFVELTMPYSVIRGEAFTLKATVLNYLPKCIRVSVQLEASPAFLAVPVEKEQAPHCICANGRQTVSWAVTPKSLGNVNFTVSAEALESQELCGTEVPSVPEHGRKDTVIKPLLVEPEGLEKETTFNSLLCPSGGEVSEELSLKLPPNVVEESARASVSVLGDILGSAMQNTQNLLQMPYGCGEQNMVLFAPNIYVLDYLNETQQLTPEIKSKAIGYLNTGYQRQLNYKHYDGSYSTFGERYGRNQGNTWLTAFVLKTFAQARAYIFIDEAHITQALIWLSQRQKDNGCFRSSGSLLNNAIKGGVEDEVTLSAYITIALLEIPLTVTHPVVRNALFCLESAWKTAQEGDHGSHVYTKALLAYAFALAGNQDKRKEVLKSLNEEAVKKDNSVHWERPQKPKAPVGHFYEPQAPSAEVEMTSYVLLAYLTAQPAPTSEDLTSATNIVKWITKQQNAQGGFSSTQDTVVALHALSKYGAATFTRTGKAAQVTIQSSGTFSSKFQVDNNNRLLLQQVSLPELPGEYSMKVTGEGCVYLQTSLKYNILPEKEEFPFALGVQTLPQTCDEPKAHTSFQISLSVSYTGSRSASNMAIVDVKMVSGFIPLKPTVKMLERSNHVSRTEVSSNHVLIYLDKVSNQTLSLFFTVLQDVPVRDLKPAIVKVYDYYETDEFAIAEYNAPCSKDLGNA
Experimental: TGF- ? isoforms bind to α2M* with different affinities: TGF ? β2>TGF ? β1 ( active sites of TGF ? β1 and TGF- ? 2 responsible for high-affinity binding to ? 2M* are disti from the low-affinity ? 2M* binding site in TGF- ? 3 (19). To determine if fatty acids differentially affect the binding of TGF- ? isoforms to ? 2M*, the effects of various concentrations of arachidonic acid and myristic acid on complex formation of ^125I-labeled TGF ? β isoforms and ? 2M were determined*. […] It inhibited 30% of the complex form . α2M* and TGF ? β2 and TGF ? β3 at 100 and >250 μM, respectively. Arachidon polyunsaturated fatty acid, was a stronger inhibitor of complex formation of ? 2M* and TGF-.β2/TGF ? β3. It inhibited 50% of the complex formation of ? 2M* and ^125I-TGF- ? 2 at 50 μM (FIG. 3A). The observation that myristic acid and arachidonic acid inhibited complex formation of ^125I-TGF- ? […] 2M* complexes in the reaction mixtures were then analyzed by 7.5% SDS-PAGE and autoradiography.
Complex formation of ^125I-TGF-β and ? […] After 30 min at room temperature, the complex formation of ^125I-TGF- ? and. α2M* was determined by 5% non-denaturing polyacrylamide gel electrophoresis (PAGE) or by 7.5% SDS-PAGE following cross-linking by 0.6 mM DSS. After electrophoresis, the gel was stained with Coomassie blue and analyzed by autoradiography. […] 2M* was quantified using a PhosphoImager (Fuji).

[2] = molecular target: T2, 125I-TGF-β2-α2M* complex (Homo sapiens, UniProt P01023); assay: Dissociation of preformed 125I-TGF-β2-α2M* complex; format: binding; details: at 250 μM
T2 construct: was purified from pooled citrate-treate human plasma; from tissue; host or cells: pooled citrate-treated human plasma
T2 sequence (P01023 24-1474): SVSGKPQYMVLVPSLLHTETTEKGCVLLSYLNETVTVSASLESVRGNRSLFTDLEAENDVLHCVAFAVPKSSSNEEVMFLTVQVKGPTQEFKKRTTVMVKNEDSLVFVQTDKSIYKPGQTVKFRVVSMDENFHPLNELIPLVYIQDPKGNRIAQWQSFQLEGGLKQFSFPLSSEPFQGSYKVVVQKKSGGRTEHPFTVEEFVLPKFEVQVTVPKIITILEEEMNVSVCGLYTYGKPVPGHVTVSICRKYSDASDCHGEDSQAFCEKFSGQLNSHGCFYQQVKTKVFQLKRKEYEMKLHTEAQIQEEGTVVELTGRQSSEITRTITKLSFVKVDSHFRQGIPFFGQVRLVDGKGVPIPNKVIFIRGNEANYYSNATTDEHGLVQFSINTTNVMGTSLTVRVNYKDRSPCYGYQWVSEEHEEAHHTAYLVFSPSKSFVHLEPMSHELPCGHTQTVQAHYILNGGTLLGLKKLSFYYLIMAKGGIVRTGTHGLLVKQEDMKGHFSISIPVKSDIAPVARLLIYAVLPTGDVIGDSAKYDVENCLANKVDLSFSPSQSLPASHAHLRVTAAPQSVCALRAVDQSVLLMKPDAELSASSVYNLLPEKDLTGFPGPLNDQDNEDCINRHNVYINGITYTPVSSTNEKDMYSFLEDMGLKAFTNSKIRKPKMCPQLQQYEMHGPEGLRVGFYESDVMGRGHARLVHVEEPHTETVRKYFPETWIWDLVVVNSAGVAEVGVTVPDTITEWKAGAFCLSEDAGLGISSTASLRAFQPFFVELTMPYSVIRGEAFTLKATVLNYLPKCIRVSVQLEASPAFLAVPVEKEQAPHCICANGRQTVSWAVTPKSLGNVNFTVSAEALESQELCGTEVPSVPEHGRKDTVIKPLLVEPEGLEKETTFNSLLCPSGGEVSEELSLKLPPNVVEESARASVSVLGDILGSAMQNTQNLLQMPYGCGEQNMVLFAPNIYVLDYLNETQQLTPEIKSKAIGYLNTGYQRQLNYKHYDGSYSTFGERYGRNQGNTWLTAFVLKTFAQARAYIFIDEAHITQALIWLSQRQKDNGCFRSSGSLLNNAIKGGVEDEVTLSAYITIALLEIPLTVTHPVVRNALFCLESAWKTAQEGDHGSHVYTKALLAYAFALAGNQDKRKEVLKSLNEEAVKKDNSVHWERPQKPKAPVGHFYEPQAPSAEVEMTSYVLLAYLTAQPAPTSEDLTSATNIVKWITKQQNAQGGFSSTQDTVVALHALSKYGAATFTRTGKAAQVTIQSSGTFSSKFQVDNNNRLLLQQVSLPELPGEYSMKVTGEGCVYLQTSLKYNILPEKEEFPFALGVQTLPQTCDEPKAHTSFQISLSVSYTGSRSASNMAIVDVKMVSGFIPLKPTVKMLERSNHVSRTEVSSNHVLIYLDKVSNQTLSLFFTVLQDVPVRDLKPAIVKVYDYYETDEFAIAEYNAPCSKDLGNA

In the case of `CCCCCCCCCCCCCC(=O)O` [myristic acid], the “concentration that inhibited 30% of the complex formation of α2M* and TGF-β2” value [1] is reported as 100 µM and the “dissociation of the 125I-TGF-β2-α2M* complex” value [2] is reported as “inactive”.
